Tested on: bacterial strain Shinella granuli
Test: Oxitop respirometric screening test (oxygen overconsumption as signature of uncoupling, 7 days)
Assay type: cell-based
Settings: for uncoupling percentage relative to the control: Shinella granuli, 7 days
Excerpt: In order to evaluate the reduction in sludge production by a chemical uncoupling agent in screening, the respirometric technique of Oxitop® cylinders is used. Bacterial strains known and representative of activated sludge (since they are isolated in aeration tanks) are inoculated into a culture medium in the presence of a certain concentration of the uncoupling agent over a period of 7 days. By comparing the respiration of treated inocula comparatively with controls (untreated inocula), it is possible to measure oxygen overconsumption, a physiological signature of the uncoupling effect on bacteria.
The method and the apparatus used are those described in Example 3 of WO 2004/113236 cited as a reference.
The results obtained in a screening test on the bacterial strain Shinella granuli, are gathered in Table 1 below. They are expressed as an uncoupling percentage relative to the control (not comprising any uncoupling agent). THPS (tetrakis(hydromethyl)phosphonium sulfate) produces uncoupling effects in oxitop® respirometry tests of 16±8% for a rated concentration of 3 ppm, the 95% confidence interval of THPS in terms of uncoupling factor being, […] from results obtained in 26 Oxitop® tests.

Row | SMILES | uncoupling percentage relative to the control (0.5 ppm uncoupling agent) | uncoupling percentage relative to the control (1 ppm uncoupling agent) | uncoupling percentage relative to the control (3 ppm uncoupling agent) | uncoupling percentage relative to the control (20 ppm uncoupling agent) | uncoupling factor (concentration range between 2 and 20 ppm, summary drawn from Table 1) | uncoupling percentage relative to the control (0.1 ppm uncoupling agent) | uncoupling percentage relative to the control (2 ppm uncoupling agent) | uncoupling percentage relative to the control (8 ppm uncoupling agent) | uncoupling percentage relative to the control (10 ppm uncoupling agent)
1 | OCC(CO)(CO)CO [Pentaerythritol, pentaerythritol] | 2% | 8% | 19% | 22% | ~20% | – | – | – | –
2 | COc1cc(C=O)ccc1O [Vanillin, vanillin] | 18% | 14% | 15%-22% | 18% | – | 5% | 18%-25% | 21%-21% | 18%-23%
3 | C[N+](C)(C)CC(=O)[O-] [Glycine betaine, glycine betaine] | 18% | 0% | 24%-25% | – | – | 5% | 20%-26% | 20%-26% | 12-20%
